Assay [1] deals with T1, human GLP-1 receptor (hGLP-1R) (Homo sapiens, UniProt P43220).
T1 construct: expressed in transfected cells
As to the kind of experiment: GLP-1 receptor assay, method A (CRE-luciferase reporter, BHK cells). It is filed as cell-based. Put shortly:
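hGLP-1R BHK CRE-Luc cells, thawed, in DMEM (no phenol red)/10 mM HEPES/1% ovalbumin/0.1% Pluronic F-68 ± 1% (w/v) HSA; 3 h, 37° C, 5% CO2; steadylite Plus, 30 min RT, luminescence.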

Assay [2] addresses T2, human amylin receptor (hAMYR3) (Homo sapiens, UniProt O60896+P30988).
T2 construct: host or cells: BHK cells (Hollex-1 line expressing hCTR(a) and CRE-Luc), further transfected with human RAMP3
Kind of assay: Amylin receptor assay, method A (CRE-luciferase reporter, BHK cells). It is filed as cell-based.

Assay [3] has as its system Male Sprague Dawley (SD) rats. As to the kind of experiment: Efficacy testing on appetite: acute food intake in ad libitum fed normal weight rats. It is filed as in vivo, rat. To be noted: for Food intake (relative to vehicle) Day 1: day 1 [0-24 hours]; for Food intake (relative to vehicle) Day 2: day 2 [24-48 hours]; for Food intake (relative to vehicle) Day 3: day 3 [48-72 hours]. The method, boiled down: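 Ad libitum-fed male SD rats on a reversed light cycle received one s.c. dose (10 or 30 nmol/kg; 0.5 ml/kg of 8 mM phosphate, 250 mM glycerol, 0.007% polysorbate 20, pH 7.4) just before dark onset. Individual food intake was logged continuously for 0–72 h by an automated weighing system.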

Setting [4] is: hGLP-1R Potency, 1% HSA, EC50, method A, in the presence of 1% HSA.
The mark [5] stands for this setting: method A, absence of HSA, read-out: hGLP-1R Potency, no HSA, EC50.
The mark [6] stands for this setting: hAMYR3 Potency, 1% HSA, EC50, method A, in the presence of 1% HSA.
Where [7] appears, read: method A, absence of HSA, read-out: hAMYR3 Potency, no HSA, EC50.

We go through 7 substances from patent US20260174875A1 (Novo Nordisk A/S, priority 2023, published 2026).

Read-outs that look alike come from different tables or passages of the source. Marks after values point to notes of the source that are not given here. Numbered stars: 1 amine (or outer) side, 2 acyl side, 3 side chain; on linkers, the order of the positions; unused ones are H or OH. Square brackets hold non-standard residues; d marks the D form. Side chains are listed from the residue outwards. * marks the point of attachment. C20 diacid = O=C(O)CCCCCCCCCCCCCCCCCCC(=O)*; C18 diacid = O=C(O)CCCCCCCCCCCCCCCCC(=O)*; C16 diacid = O=C(O)CCCCCCCCCCCCCCC(=O)*; γGlu = O=C(O)[C@H](CCC(=O)[*:2])N[*:1]; AEEA = NCCOCCOCC(=O)O; Aib = CC(C)(N)C(=O)O

T2 sequence (P30988 25-474): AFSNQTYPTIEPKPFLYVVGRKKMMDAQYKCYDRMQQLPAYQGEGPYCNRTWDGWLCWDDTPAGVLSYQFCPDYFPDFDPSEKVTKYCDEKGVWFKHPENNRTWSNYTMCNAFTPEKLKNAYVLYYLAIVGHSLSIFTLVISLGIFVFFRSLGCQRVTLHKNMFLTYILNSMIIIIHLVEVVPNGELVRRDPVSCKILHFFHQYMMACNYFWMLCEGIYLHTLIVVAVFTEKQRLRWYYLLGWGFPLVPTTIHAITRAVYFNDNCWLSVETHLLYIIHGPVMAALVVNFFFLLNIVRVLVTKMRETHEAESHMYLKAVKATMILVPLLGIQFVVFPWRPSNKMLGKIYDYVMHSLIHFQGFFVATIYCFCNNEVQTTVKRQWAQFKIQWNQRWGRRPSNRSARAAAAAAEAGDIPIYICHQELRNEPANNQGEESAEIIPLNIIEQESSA
T2 sequence (O60896 24-148): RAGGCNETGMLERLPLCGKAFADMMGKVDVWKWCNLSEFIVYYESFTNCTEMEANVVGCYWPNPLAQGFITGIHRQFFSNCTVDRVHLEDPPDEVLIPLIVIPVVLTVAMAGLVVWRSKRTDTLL
T1 sequence (P43220 24-463): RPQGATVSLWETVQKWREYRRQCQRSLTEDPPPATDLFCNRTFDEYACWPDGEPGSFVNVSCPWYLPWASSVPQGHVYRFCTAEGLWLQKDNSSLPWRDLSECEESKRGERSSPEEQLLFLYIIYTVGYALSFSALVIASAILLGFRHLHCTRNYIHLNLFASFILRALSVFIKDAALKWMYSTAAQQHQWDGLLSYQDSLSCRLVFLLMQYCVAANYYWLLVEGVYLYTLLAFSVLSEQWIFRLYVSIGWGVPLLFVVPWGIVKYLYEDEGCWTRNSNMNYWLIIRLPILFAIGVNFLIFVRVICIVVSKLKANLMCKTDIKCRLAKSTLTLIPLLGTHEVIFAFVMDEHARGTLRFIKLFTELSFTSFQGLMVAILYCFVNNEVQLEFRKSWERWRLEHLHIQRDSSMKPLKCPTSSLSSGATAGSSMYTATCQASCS

As usually defined, the EC50 is the concentration that produces a half-maximal response. Consider “Y[Aib]EGTFTSDYSILLEEQAAREFIEWLLAGGPSK([AEEA-AEEA-γGlu-C16 diacid])GAPPPSGGGEASELSTAALGRLSAELHELATLPRTETGSGSP-NH2 [compound 10]”, for which, in assay [1] (absence of HSA, <50 = balanced tri-agonist), the “potency ratio (A/B): highest EC50 divided by lowest EC50 over hGLP-1R, hGIPR, hAMYR3” value is 7. Besides, the EC50 in assay [1] (setting [4]) came to 0.246 nM; in assay [1] (setting [5]), 0.0138 nM; in assay [2] (setting [6]), 0.175 nM; in assay [2] (setting [7]), 0.0068 nM. Besides, in assay [3] (single dose 10 nmol/kg), the “Food intake (relative to vehicle) Day 1” value is recorded as −20* %. Also, in assay [3] (single dose 10 nmol/kg), the “Food intake (relative to vehicle) Day 2” value is −4%. The “Food intake (relative to vehicle) Day 3” value in assay [3] (single dose 10 nmol/kg) was −4%.
As for “Y[Aib]EGTFTSDYSILLEEQAAREFIEWLLAGGPSSGEASHLSTAQTQRLSAELHRLK([AEEA-AEEA-γGlu-C18 diacid])TLPRTETGSGSP-NH2 [Compound 80]”, the EC50 in assay [1] (setting [4]) was 0.111 nM; in assay [1] (setting [5]) it was 0.0248 nM; in assay [2] (setting [6]), 0.0624 nM; in assay [2] (setting [7]), 0.00323 nM. The “Food intake (relative to vehicle) Day 1” value in assay [3] (single dose 10 nmol/kg) is −84%. Also, the “Food intake (relative to vehicle) Day 2” value in assay [3] (single dose 10 nmol/kg) is reported as −78%. Moreover, the “Food intake (relative to vehicle) Day 3” value in assay [3] (single dose 10 nmol/kg) is reported as −23%.
Turning to “H[Aib]HGTFTSDYSILLEEQAAREFIEWLLAGGPSSGEASHLSTAALGRLSAK([AEEA-AEEA-γGlu-C18 diacid])LHRLATLPRTETGSGSP-NH2 [Compound 87]”, the EC50 was found to be 0.0393 nM in assay [1] (setting [4]), 0.00849 nM in assay [1] (setting [5]), 0.0365 nM in assay [2] (setting [6]) and 0.00499 nM in assay [2] (setting [7]). For the same substance, the “Food intake (relative to vehicle) Day 1” value in assay [3] (single dose 10 nmol/kg) is given as −91%. For the same substance, in assay [3] (single dose 10 nmol/kg), the “Food intake (relative to vehicle) Day 2” value is recorded as −86%. Also, the “Food intake (relative to vehicle) Day 3” value in assay [3] (single dose 10 nmol/kg) was −24%.
Regarding “Y[Aib]EGTFTSDYSILLEEQAAREFIEWLLAGGPSSGAPPPSGGGEASHLSTAQTQRLSAK([AEEA-AEEA-γGlu-C20 diacid])LHRLATLPRTETGSGSP-NH2 [Compound 110]”, the EC50 in assay [1] (setting [4]) is 0.169 nM; in assay [1] (setting [5]), 0.107 nM; in assay [2] (setting [6]) it was 0.094 nM; in assay [2] (setting [7]) it was 0.00327 nM. Besides, in assay [3] (single dose 10 nmol/kg), the “Food intake (relative to vehicle) Day 1” value is recorded as −75%. For the same substance, the “Food intake (relative to vehicle) Day 2” value in assay [3] (single dose 10 nmol/kg) is recorded as −54%. In addition, the “Food intake (relative to vehicle) Day 3” value in assay [3] (single dose 10 nmol/kg) is −23%.
As to “Y[Aib]EGTFTSDYSILLEEQAAREFIEWLLAGGPSSGAGQAPGQAPGASHLSTAQTQRLSAELHRLATLPK([AEEA-AEEA-γGlu-C18 diacid])TETGSGSP-NH2 [Compound 57]”, the EC50 was 0.0296 nM in assay [1] (setting [4]), 0.0128 nM in assay [1] (setting [5]), 0.085 nM in assay [2] (setting [6]) and 0.003 nM in assay [2] (setting [7]). Moreover, the “Food intake (relative to vehicle) Day 1” value in assay [3] (single dose 10 nmol/kg) is reported as −75%. In assay [3] (single dose 10 nmol/kg), the “Food intake (relative to vehicle) Day 2” value is recorded as −88%. In assay [3] (single dose 10 nmol/kg), the “Food intake (relative to vehicle) Day 3” value is reported as −14%.
For the substance “Y[Aib]EGTFTSDYSILLEEQAAREFIEWLLAGGPSSGAPPPSGGGEASHLSTAQTQRLSAK([AEEA-AEEA-γGlu-C18 diacid])LHRLATLPRTETGSGSP-NH2 [Compound 109]”, the concentration giving a half-maximal response (EC50) in assay [1] (setting [4]) was 0.0947 nM; in assay [1] (setting [5]) it was 0.0689 nM; in assay [2] (setting [6]), 0.032 nM; in assay [2] (setting [7]), 0.00365 nM. In assay [3] (single dose 10 nmol/kg), the “Food intake (relative to vehicle) Day 1” value was −85%. Besides, the “Food intake (relative to vehicle) Day 2” value in assay [3] (single dose 10 nmol/kg) is listed as −34%. The “Food intake (relative to vehicle) Day 3” value in assay [3] (single dose 10 nmol/kg) is listed as −28%.
Take “Y[Aib]EGTFTSDYSILLEEQAAREFIEWLLAGGPSK([AEEA-AEEA-γGlu-C18 diacid])GEASELSTAALGRLSAELHELATLPRTETGSGSP-NH2 [Compound 26]”: the EC50 in assay [1] (setting [4]) came to 1.68 nM; in assay [1] (setting [5]), 0.0207 nM; in assay [2] (setting [6]) it was 0.349 nM; in assay [2] (setting [7]), 0.0118 nM. For the same substance, the “Food intake (relative to vehicle) Day 1” value in assay [3] (single dose 30 nmol/kg) was −11%. Besides, the “Food intake (relative to vehicle) Day 2” value in assay [3] (single dose 30 nmol/kg) is listed as −18%. For the same substance, the “Food intake (relative to vehicle) Day 3” value in assay [3] (single dose 30 nmol/kg) stood at 0%.
